This passage reports IC50 results from US10221161B2, “Inhibitors of plasma kallikrein” (Kalvista Pharmaceuticals Limited, priority 2013, dated 2019).

In one experiment the target is Human KLK1 (Homo sapiens (Human), UniProt P06870). As to the kind of experiment: Determination of the IC50 for KLK1 (fluorogenic substrate H-DVal-Leu-Arg-AFC). Particulars: human KLK1, 37° C. It is filed as biochemical. The method in brief: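 Inhibition of human KLK1 (Callbiochem) was measured in vitro following standard published methods. The enzyme was incubated at 37° C. with the fluorogenic substrate H-DVal-Leu-Arg-AFC across a range of test compound concentrations. Residual activity, taken as the initial reaction rate, was followed by […], and IC50 values were calculated.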

Another experiment deals with Human plasma kallikrein (Homo sapiens (Human), UniProt P03952). As to the kind of experiment: Determination of the IC50 for plasma kallikrein (fluorogenic substrate H-DPro-Phe-Arg-AFC). Particulars: 37° C., read-out: IC50 (human PKal). In kind it is biochemical. On the procedure: Determination of the IC50 Plasma Kallikrein Plasma kallikrein inhibitory activity in vitro was determined using standard published methods (see e.g. Johansen et al., Int. J. Tiss. […] Shori et al., Biochem. Pharmacol., 1992, 43, 1209; Stürzebecher et al., Biol. Chem. Hoppe-Seyler, 1992, 373, 1025). Human plasma kallikrein (Protogen) was incubated at 37° C. with the fluorogenic substrate […] and various concentrations of the test compound.
Chain of Human plasma kallikrein (P03952 391-638 limits assumed): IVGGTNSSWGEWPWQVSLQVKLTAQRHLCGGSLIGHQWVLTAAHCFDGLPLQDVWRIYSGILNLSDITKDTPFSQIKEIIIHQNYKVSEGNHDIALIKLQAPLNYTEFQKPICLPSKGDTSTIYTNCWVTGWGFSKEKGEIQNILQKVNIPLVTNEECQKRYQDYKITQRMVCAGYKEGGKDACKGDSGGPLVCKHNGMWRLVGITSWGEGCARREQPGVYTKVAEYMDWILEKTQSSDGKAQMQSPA
Chain of Human plasma kallikrein (P03952 20-390 partner limits assumed): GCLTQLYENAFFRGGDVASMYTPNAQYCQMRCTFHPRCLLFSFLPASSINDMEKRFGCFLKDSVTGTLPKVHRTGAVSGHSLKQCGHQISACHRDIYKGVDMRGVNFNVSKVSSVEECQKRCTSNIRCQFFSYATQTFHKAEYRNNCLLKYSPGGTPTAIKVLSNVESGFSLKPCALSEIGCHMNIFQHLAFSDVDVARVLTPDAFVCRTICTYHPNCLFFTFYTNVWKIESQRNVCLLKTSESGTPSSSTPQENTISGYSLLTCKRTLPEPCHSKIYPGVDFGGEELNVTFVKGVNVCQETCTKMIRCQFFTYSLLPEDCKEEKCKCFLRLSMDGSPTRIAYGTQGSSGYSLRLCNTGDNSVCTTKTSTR

Chain of Human KLK1 (P06870 25-262): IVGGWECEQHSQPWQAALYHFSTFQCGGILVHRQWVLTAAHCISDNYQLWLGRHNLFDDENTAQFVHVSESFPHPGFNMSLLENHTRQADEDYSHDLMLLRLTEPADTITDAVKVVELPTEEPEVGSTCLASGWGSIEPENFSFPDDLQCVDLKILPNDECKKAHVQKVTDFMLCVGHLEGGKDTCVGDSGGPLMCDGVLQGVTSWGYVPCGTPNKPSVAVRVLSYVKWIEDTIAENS

What is called IC50 is the concentration that gives 50% inhibition. Take `Cc1cnn(Cc2ccc(Cc3cncc(C(=O)NCc4ccc(CN)cc4C)c3)cc2)c1` [Example 93, N-{[4-(Aminomethyl)-2-methylphenyl]methyl}-5-({4-[(4-methylpyrazol-1-yl)methyl]phenyl}methyl)pyridine-3-carboxamide]: the IC50 on Human KLK1 is > 40 µM; at Human plasma kallikrein, 0.0144 µM.
For `Cc1cnn(Cc2ccc(Cc3cncc(C(=O)NCc4c(C)cc(CN)cc4C)c3)cc2)c1` [Example 94, N-{[4-(Aminomethyl)-2,6-dimethylphenyl]methyl}-5-({4-[(4-methylpyrazol-1-yl)methyl]phenyl}methyl)pyridine-3-carboxamide], the half-inhibitory concentration (IC50) against Human KLK1 is > 40 µM; on Human plasma kallikrein, 0.00747 µM.
The matching figures for `Cc1cnn(Cc2ccc(Cc3cncc(C(=O)NCc4c(C)cc(CN)cc4C)n3)cc2)c1` [Example 95, N-{[4-(Aminomethyl)-2,6-dimethylphenyl]methyl}-6-({4-[(4-methylpyrazol-1-yl)methyl]phenyl}methyl)pyrazine-2-carboxamide]: > 40 µM and 0.0536 µM.
The matching figures for `Cc1cnn(Cc2ccc(Cc3cncc(C(=O)NCc4ccc(CN)c(F)c4)c3)cc2)c1` [Example 96, N-{[4-(Aminomethyl)-3-fluorophenyl]methyl}-5-({4-[(4-methylpyrazol-1-yl)methyl]phenyl}methyl)pyridine-3-carboxamide]: > 40 µM and 0.365 µM.
